The compounds below were run against MCH receptor (Homo sapiens, UniProt Q99705) (assay: Receptor binding assay with Radiolabelled MCH Ligand). Conditions: class by percent of control at 10^-7 M or IC50.
Chain of MCH receptor (Q99705 whole entry): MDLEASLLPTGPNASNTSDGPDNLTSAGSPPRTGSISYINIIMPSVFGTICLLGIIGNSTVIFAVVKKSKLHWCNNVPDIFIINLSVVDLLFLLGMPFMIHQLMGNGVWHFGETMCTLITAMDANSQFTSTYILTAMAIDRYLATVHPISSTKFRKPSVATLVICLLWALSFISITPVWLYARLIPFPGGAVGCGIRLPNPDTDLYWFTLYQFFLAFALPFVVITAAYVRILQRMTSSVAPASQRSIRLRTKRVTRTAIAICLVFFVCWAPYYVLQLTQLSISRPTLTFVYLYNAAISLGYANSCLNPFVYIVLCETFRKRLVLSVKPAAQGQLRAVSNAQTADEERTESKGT
Design: expressed in transfected cells; host or cells: 293 cells (human kidney, ATCC), transient transfection; crude membranes
Summary of the method: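 This was a filtration radioligand displacement assay: compounds, first tested at 1 and 0.1 μM and then over a range, inhibited binding of a labelled MCH ligand to transfected 293-cell membranes at room temperature for 60–120 min. Specific binding excluded a cold-MCH nonspecific signal. Ki was derived from IC50 via Cheng-Prusoff, using an independently measured KD.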
For Cc1nc(N[C@H]2CC[C@@H](NC(=O)c3ccc4c(c3)OCO4)CC2)cc(N(C)C)n1 [compound 237], the class was 3 (Class 3: The value of percent of control at 10^−7 M was more than 60% or the value of IC50 was more than 200 nM.). With Cc1nc(N[C@H]2CC[C@@H](NS(=O)(=O)Cc3cccc(C(F)(F)F)c3)CC2)cc(N(C)C)n1 [compound 472] the class was 3 (Class 3: The value of percent of control at 10^−7 M was more than 60% or the value of IC50 was more than 200 nM.). With Cc1nc(N[C@H]2CC[C@@H](NC(=O)CC(C)C(F)(F)F)CC2)cc(N(C)C)n1 (relative stereo) [compound 314] the class was 3 (Class 3: The value of percent of control at 10^−7 M was more than 60% or the value of IC50 was more than 200 nM.). Cc1nc(N[C@H]2CC[C@@H](NC(=O)C3CCCC[C@@H]3NC(=O)c3ccccc3)CC2)cc(N(C)C)n1 (some centres unmarked) [compound 276] was tested, and the class was 3 (Class 3: The value of percent of control at 10^−7 M was more than 60% or the value of IC50 was more than 200 nM.). Cc1ccc(C(=O)N[C@H]2CC[C@@H](Nc3cc(N(C)C)nc(C)n3)CC2)cc1 [compound 242] was tested, and the class was 3 (Class 3: The value of percent of control at 10^−7 M was more than 60% or the value of IC50 was more than 200 nM.). In the case of Cc1nc(N[C@H]2CC[C@@H](NCCc3ccccc3)CC2)cc(N(C)C)n1 [compound 382], the class is reported as 3 (Class 3: The value of percent of control at 10^−7 M was more than 60% or the value of IC50 was more than 200 nM.). COc1ccc(Oc2ccc([N+](=O)[O-])cc2CN[C@H]2CC[C@@H](Nc3cc(N(C)C)nc(C)n3)CC2)cc1 [compound 377] was tested, and the class was 3 (Class 3: The value of percent of control at 10^−7 M was more than 60% or the value of IC50 was more than 200 nM.). In the case of Cc1nc(N[C@H]2CC[C@@H](NC(=O)c3ccccc3CCc3ccccc3)CC2)cc(N(C)C)n1 [compound 305], the class is reported as 3 (Class 3: The value of percent of control at 10^−7 M was more than 60% or the value of IC50 was more than 200 nM.). With Cc1nc(N[C@H]2CC[C@@H](NC(=O)c3cnn(C)c3Cl)CC2)cc(N(C)C)n1 [compound 272] the class was 3 (Class 3: The value of percent of control at 10^−7 M was more than 60% or the value of IC50 was more than 200 nM.). Cc1nc(N[C@H]2CC[C@@H](NC(=O)Nc3c(C)cccc3C(C)(C)C)CC2)cc(N(C)C)n1 [compound 422] was tested, and the class was 2 (Class 2: The value of percent of control at 10^−7 M was from 40% to 60% or the value of IC50 was from 50 nM to 200 nM.). With Cc1nc(N[C@H]2CC[C@@H](NC(=O)OCC(Cl)(Cl)Cl)CC2)cc(N(C)C)n1 [compound 470] the class was 3 (Class 3: The value of percent of control at 10^−7 M was more than 60% or the value of IC50 was more than 200 nM.). In the case of Cc1nc(N[C@H]2CC[C@@H](NS(=O)(=O)c3ccc(Oc4ccccc4)cc3)CC2)cc(N(C)C)n1 [compound 496], the class is reported as 3 (Class 3: The value of percent of control at 10^−7 M was more than 60% or the value of IC50 was more than 200 nM.). With Cc1nc(N[C@H]2CC[C@@H](NC(=O)CCC(=O)c3ccc(S(C)(=O)=O)cc3)CC2)cc(N(C)C)n1 [compound 292] the class was 3 (Class 3: The value of percent of control at 10^−7 M was more than 60% or the value of IC50 was more than 200 nM.). With Cc1nc(N[C@H]2CC[C@@H](NC(=O)C3c4ccccc4Oc4ccccc43)CC2)cc(N(C)C)n1 [compound 327, N-(cis-4-{[6-(dimethylamino)-2-methylpyrimidin-4-yl]amino}cyclohexyl)-9H-xanthene-9-carboxamide] the class was 3 (Class 3: The value of percent of control at 10^−7 M was more than 60% or the value of IC50 was more than 200 nM.). Cc1nc(N[C@H]2CC[C@@H](NCc3ccno3)CC2)cc(N(C)C)n1 [compound 374] was tested, and the class was 3 (Class 3: The value of percent of control at 10^−7 M was more than 60% or the value of IC50 was more than 200 nM.). In the case of COC(=O)c1cc(S(=O)(=O)N[C@H]2CC[C@@H](Nc3cc(N(C)C)nc(C)n3)CC2)oc1C [compound 508], the class is reported as 3 (Class 3: The value of percent of control at 10^−7 M was more than 60% or the value of IC50 was more than 200 nM.). For Cc1nc(N[C@H]2CC[C@@H](NCc3ccc4ccccc4c3)CC2)cc(N(C)C)n1 [compound 378], the class was 3 (Class 3: The value of percent of control at 10^−7 M was more than 60% or the value of IC50 was more than 200 nM.). In the case of CCCCOc1ccc(S(=O)(=O)N[C@H]2CC[C@@H](Nc3cc(N(C)C)nc(C)n3)CC2)cc1 [compound 494], the class is reported as 3 (Class 3: The value of percent of control at 10^−7 M was more than 60% or the value of IC50 was more than 200 nM.). With Cc1nc(N[C@H]2CC[C@@H](NC(=O)c3ccc(F)cc3)CC2)cc(N(C)C)n1 [compound 221, N-(cis-4-{[6-(dimethylamino)-2-methylpyrimidin-4-yl]amino}cyclohexyl)-4-fluorobenzamide] the class was 3 (Class 3: The value of percent of control at 10^−7 M was more than 60% or the value of IC50 was more than 200 nM.). For Cc1nc(N[C@H]2CC[C@@H](NS(=O)(=O)c3ccc4c(c3)CN(C(=O)C(F)(F)F)CC4)CC2)cc(N(C)C)n1 [compound 509], the class was 3 (Class 3: The value of percent of control at 10^−7 M was more than 60% or the value of IC50 was more than 200 nM.). For Cc1nc(N[C@H]2CC[C@@H](NCCOc3ccccc3[N+](=O)[O-])CC2)cc(N(C)C)n1 [compound 385], the class was 3 (Class 3: The value of percent of control at 10^−7 M was more than 60% or the value of IC50 was more than 200 nM.). COC(=O)c1csc(S(=O)(=O)N[C@H]2CC[C@@H](Nc3cc(N(C)C)nc(C)n3)CC2)c1OC [compound 518] was tested, and the class was 3 (Class 3: The value of percent of control at 10^−7 M was more than 60% or the value of IC50 was more than 200 nM.). In the case of Cc1nc(N[C@H]2CC[C@@H](NS(=O)(=O)/C=C/c3ccccc3)CC2)cc(N(C)C)n1 [compound 471], the class is reported as 3 (Class 3: The value of percent of control at 10^−7 M was more than 60% or the value of IC50 was more than 200 nM.). Cc1nc(N[C@H]2CC[C@@H](NS(=O)(=O)c3ccc(Cl)c4nonc34)CC2)cc(N(C)C)n1 [compound 521] was tested, and the class was 3 (Class 3: The value of percent of control at 10^−7 M was more than 60% or the value of IC50 was more than 200 nM.). In the case of Cc1nc(N[C@H]2CC[C@@H](NS(=O)(=O)c3ccc(Oc4ncc(C(F)(F)F)cc4Cl)cc3)CC2)cc(N(C)C)n1 [compound 497], the class is reported as 3 (Class 3: The value of percent of control at 10^−7 M was more than 60% or the value of IC50 was more than 200 nM.). Cc1nc(N[C@H]2CC[C@@H](NCCc3ccc(Cl)cc3)CC2)cc(N(C)C)n1 [compound 364] was tested, and the class was 3 (Class 3: The value of percent of control at 10^−7 M was more than 60% or the value of IC50 was more than 200 nM.). In the case of Cc1nc(N[C@H]2CC[C@@H](NC(=O)C3CCCC3)CC2)cc(N(C)C)n1 [compound 253, N-(cis-4-{[6-(dimethylamino)-2-methylpyrimidin-4-yl]amino}cyclohexyl)cyclopentanecarboxamide], the class is reported as 3 (Class 3: The value of percent of control at 10^−7 M was more than 60% or the value of IC50 was more than 200 nM.). For Cc1nc(N[C@H]2CC[C@@H](NC(=S)Nc3c(F)cc(Br)cc3Br)CC2)cc(N(C)C)n1 [compound 448], the class was 3 (Class 3: The value of percent of control at 10^−7 M was more than 60% or the value of IC50 was more than 200 nM.). In the case of Cc1nc(N[C@H]2CC[C@@H](NC(=O)c3ccccc3)CC2)cc(N(C)C)n1 [compound 200, N-(cis-4-{[6-(dimethylamino)-2-methylpyrimidin-4-yl]amino}cyclohexyl)benzamide], the class is reported as 2 (Class 2: The value of percent of control at 10^−7 M was from 40% to 60% or the value of IC50 was from 50 nM to 200 nM.). Cc1nc(N[C@H]2CC[C@@H](NS(=O)(=O)c3ccccc3OC(F)(F)F)CC2)cc(N(C)C)n1 [compound 491] was tested, and the class was 3 (Class 3: The value of percent of control at 10^−7 M was more than 60% or the value of IC50 was more than 200 nM.). With Cc1nc(N[C@H]2CC[C@@H](NC(=O)C3CCCCC3)CC2)cc(N(C)C)n1 [compound 212] the class was 3 (Class 3: The value of percent of control at 10^−7 M was more than 60% or the value of IC50 was more than 200 nM.). Cc1nc(N[C@H]2CC[C@@H](NC(=O)c3ccc(Cl)cc3)CC2)cc(N(C)C)n1 [compound 208, 4-chloro-N-(cis-4-{[6-(dimethylamino)-2-methylpyrimidin-4-yl]amino}cyclohexyl)benzamide] was tested, and the class was 2 (Class 2: The value of percent of control at 10^−7 M was from 40% to 60% or the value of IC50 was from 50 nM to 200 nM.). With Cc1nc(N[C@H]2CC[C@@H](NC(=O)[C@@H](C)c3cccc(C(=O)c4ccccc4)c3)CC2)cc(N(C)C)n1 [compound 309] the class was 3 (Class 3: The value of percent of control at 10^−7 M was more than 60% or the value of IC50 was more than 200 nM.). For Cc1nc(N[C@H]2CC[C@@H](NC(=O)c3ccccc3-c3ccccc3)CC2)cc(N(C)C)n1 [compound 325], the class was 3 (Class 3: The value of percent of control at 10^−7 M was more than 60% or the value of IC50 was more than 200 nM.). In the case of Cc1nc(N[C@H]2CC[C@@H](NC(=O)/C=C/c3cccc(C(F)(F)F)c3)CC2)cc(N(C)C)n1 [compound 262], the class is reported as 3 (Class 3: The value of percent of control at 10^−7 M was more than 60% or the value of IC50 was more than 200 nM.). In the case of Cc1nc(N[C@H]2CC[C@@H](NS(=O)(=O)c3ccc(Br)s3)CC2)cc(N(C)C)n1 [compound 520], the class is reported as 3 (Class 3: The value of percent of control at 10^−7 M was more than 60% or the value of IC50 was more than 200 nM.). In the case of Cc1nc(N[C@H]2CC[C@@H](NS(=O)(=O)c3cccc(Br)c3)CC2)cc(N(C)C)n1 [compound 500], the class is reported as 3 (Class 3: The value of percent of control at 10^−7 M was more than 60% or the value of IC50 was more than 200 nM.). Cc1nc(N[C@H]2CC[C@@H](NC(=O)COc3c(F)c(F)c(F)c(F)c3F)CC2)cc(N(C)C)n1 [compound 244] was tested, and the class was 3 (Class 3: The value of percent of control at 10^−7 M was more than 60% or the value of IC50 was more than 200 nM.).
